Data as given in PubChem BioAssay AID258 (DTP/NCI, 2004).
Several values for one entry are separate records, joined by “and”; a condition that tells them apart may be missing. Equal values may be shown once. Inconclusive results and toxic doses are left out.

System: CD2F1 mice, L1210 leukemia sc, survival T/C
Experiment: NCI In Vivo Anticancer Drug Screen. Data for tumor model L1210 Leukemia (subcutaneous) in CD2F1 (CDF1) mice
Settings: endpoint: median survival time, higher = longer survival
In short: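 Compound given to mice bearing transplantable tumor. Survival or tumor size then recorded. Result expressed relative to vehicle-dosed control group as T/C.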

`CC/C(=C(/CC)c1ccc(O)cc1)c1ccc(O)cc1` was tested, and the T/C (dose: 12.5 mg/kg/injection, schedule: Q01DX009 (ip), vehicle: saline with Tween-80) was 103 % of control, the T/C (dose: 12.5 mg/kg/injection, schedule: Q01DX009 (sc), vehicle: saline with Tween-80) was 98 % of control and the T/C (dose: 25.0 mg/kg/injection, schedule: Q01DX009 (ip), vehicle: saline with Tween-80) was 104 % of control. For the same molecule, the T/C (dose: 25.0 mg/kg/injection, schedule: Q01DX009 (sc), vehicle: saline with Tween-80) was 98 % of control and 100 % of control, the T/C (dose: 50.0 mg/kg/injection, schedule: Q01DX009 (ip), vehicle: saline with Tween-80) was 100 % of control and the T/C (dose: 50.0 mg/kg/injection, schedule: Q01DX009 (sc), vehicle: saline with Tween-80) was 102 % of control. The T/C (dose: 100.0 mg/kg/injection, schedule: Q01DX009 (ip), vehicle: saline with Tween-80) was 97 % of control, the T/C (dose: 100.0 mg/kg/injection, schedule: Q01DX009 (sc), vehicle: saline with Tween-80) was 96 % of control and 97 % of control and the T/C (dose: 200.0 mg/kg/injection, schedule: Q01DX009 (ip), vehicle: saline with Tween-80) was 96 % of control. For the same molecule, the T/C (dose: 200.0 mg/kg/injection, schedule: Q01DX009 (sc), vehicle: saline with Tween-80) was 106 % of control and the T/C (dose: 400.0 mg/kg/injection, schedule: Q01DX009 (sc), vehicle: saline with Tween-80) was 101 % of control.
For `N[C@H](C(=O)O)[C@H]1ON=C(Cl)[C@@H]1O`, the T/C (dose: 16.0 mg/kg/injection, schedule: Q01DX009 (sc), vehicle: saline) was 114 % of control, the T/C (dose: 64.0 mg/kg/injection, schedule: Q01DX009 (sc), vehicle: saline) was 152 % of control and the T/C (dose: 1024.0 mg/kg/injection, schedule: Q01DX009 (sc), vehicle: saline) was 120 % of control.
For `CCN(CC)CCNc1ccc(C)c2sc3ccccc3c(=O)c12`, the T/C (dose: 25.0 mg/kg/injection, schedule: Q01DX009 (ip), vehicle: saline) was 116 % of control, the T/C (dose: 100.0 mg/kg/injection, schedule: Q01DX009 (ip), vehicle: saline) was 158 % of control and the T/C (dose: 200.0 mg/kg/injection, schedule: Q01DX009 (ip), vehicle: saline) was 87 % of control.
For `Nc1n[nH]c2ccccc12`, the T/C (dose: 25.0 mg/kg/injection, schedule: Q01DX005 (ip), vehicle: acid diluted with saline) was 102 % of control, the T/C (dose: 25.0 mg/kg/injection, schedule: Q01DX009 (ip), vehicle: acid diluted with saline) was 113 % of control and the T/C (dose: 50.0 mg/kg/injection, schedule: Q01DX005 (ip), vehicle: acid diluted with saline) was 106 % of control. The T/C (dose: 50.0 mg/kg/injection, schedule: Q01DX009 (ip), vehicle: acid diluted with saline) was 99 % of control, the T/C (dose: 100.0 mg/kg/injection, schedule: Q01DX005 (ip), vehicle: acid diluted with saline) was 104 % of control and the T/C (dose: 100.0 mg/kg/injection, schedule: Q01DX009 (ip), vehicle: acid diluted with saline) was 103 % of control. For the same molecule, the T/C (dose: 200.0 mg/kg/injection, schedule: Q01DX005 (ip), vehicle: acid diluted with saline) was 110 % of control.
With `OCC1OC(n2cnc3c(=S)nc[nH]c32)C(O)C1O` (stereo not drawn) the T/C (dose: 130.0 mg/kg/injection, schedule: Q01DX Z (sc), vehicle: other) was 177 % of control, the T/C (dose: 216.0 mg/kg/injection, schedule: Q01DX Z (sc), vehicle: other) was 183 % of control and the T/C (dose: 360.0 mg/kg/injection, schedule: Q01DX Z (sc), vehicle: other) was 177 % of control.
`Nc1ccn([C@@H]2C=C(CO)[C@@H](O)[C@H]2O)c(=O)n1` was tested, and the T/C (dose: 0.13 mg/kg/injection, schedule: Q03HX024 (ip), vehicle: saline) was 116 % of control, the T/C (dose: 0.19 mg/kg/injection, schedule: Q03HX024 (ip), vehicle: saline) was 112 % of control and the T/C (dose: 0.3 mg/kg/injection, schedule: Q06HX018 (ip), vehicle: saline) was 108 % of control. The T/C (dose: 0.44 mg/kg/injection, schedule: Q01DX009 (ip), vehicle: saline) was 100 % of control and 103 % of control, the T/C (dose: 0.44 mg/kg/injection, schedule: Q03HX016 (ip), vehicle: saline) was 119 % of control and the T/C (dose: 0.44 mg/kg/injection, schedule: Q03HX024 (ip), vehicle: saline) was 89 % of control. The T/C (dose: 0.45 mg/kg/injection, schedule: Q01DX009 (ip), vehicle: saline) was 103 % of control and 113 % of control (2×), the T/C (dose: 0.45 mg/kg/injection, schedule: Q01DX009 (sc), vehicle: saline) was 99 % of control and the T/C (dose: 0.45 mg/kg/injection, schedule: Q03HX008 (ip), vehicle: saline) was 118 % of control. For the same molecule, the T/C (dose: 0.45 mg/kg/injection, schedule: Q06HX018 (ip), vehicle: saline) was 163 % of control, the T/C (dose: 0.67 mg/kg/injection, schedule: Q03HX008 (ip), vehicle: saline) was 119 % of control and the T/C (dose: 0.67 mg/kg/injection, schedule: Q06HX018 (ip), vehicle: saline) was 214 % of control. The T/C (dose: 0.8 mg/kg/injection, schedule: Q01DX009 (ip), vehicle: saline) was 157 % of control, the T/C (dose: 0.99 mg/kg/injection, schedule: Q03HX008 (ip), vehicle: saline) was 120 % of control and the T/C (dose: 1.0 mg/kg/injection, schedule: Q01DX005 (iv), vehicle: saline) was 151 % of control. For the same molecule, the T/C (dose: 1.0 mg/kg/injection, schedule: Q01DX009 (sc), vehicle: saline) was 180 % of control, the T/C (dose: 1.0 mg/kg/injection, schedule: Q03HX016 (ip), vehicle: saline) was 161 % of control and the T/C (dose: 1.0 mg/kg/injection, schedule: Q06HX018 (ip), vehicle: saline) was 108 % of control. For the same molecule, the T/C (dose: 1.2 mg/kg/injection, schedule: Q01DX009 (ip), vehicle: saline) was 189 % of control, the T/C (dose: 1.49 mg/kg/injection, schedule: Q01DX005 (iv), vehicle: saline) was 97 % of control and the T/C (dose: 1.49 mg/kg/injection, schedule: Q03HX008 (ip), vehicle: saline) was 89 % of control. The T/C (dose: 1.5 mg/kg/injection, schedule: Q01DX005 (iv), vehicle: saline) was 168 % of control, the T/C (dose: 1.5 mg/kg/injection, schedule: Q01DX009 (sc), vehicle: saline) was 182 % of control and the T/C (dose: 2.2 mg/kg/injection, schedule: Q01DX005 (iv), vehicle: saline) was 162 % of control. The T/C (dose: 2.23 mg/kg/injection, schedule: Q01DX005 (iv), vehicle: saline) was 89 % of control, the T/C (dose: 2.25 mg/kg/injection, schedule: Q01DX009 (sc), vehicle: saline) was 97 % of control and the T/C (dose: 3.0 mg/kg/injection, schedule: Q03HX008 (ip), vehicle: saline) was 154 % of control. For the same molecule, the T/C (dose: 3.3 mg/kg/injection, schedule: Q01DX005 (iv), vehicle: saline) was 90 % of control, the T/C (dose: 4.5 mg/kg/injection, schedule: Q03HX008 (ip), vehicle: saline) was 113 % of control and the T/C (dose: 4.8 mg/kg/injection, schedule: Q01DX005 (iv), vehicle: saline) was 86 % of control. The T/C (dose: 5.0 mg/kg/injection, schedule: Q01DX001 (ip), vehicle: saline) was 118 % of control, the T/C (dose: 9.0 mg/kg/injection, schedule: Q03HX004 (iv), vehicle: saline) was 152 % of control and the T/C (dose: 10.7 mg/kg/injection, schedule: Q01DX001 (ip), vehicle: saline) was 123 % of control. The T/C (dose: 11.2 mg/kg/injection, schedule: Q01DX001 (ip), vehicle: saline) was 110 % of control and 123 % of control, the T/C (dose: 11.2 mg/kg/injection, schedule: Q01DX001 (iv), vehicle: saline) was 119 % of control and the T/C (dose: 16.9 mg/kg/injection, schedule: Q01DX001 (iv), vehicle: saline) was 100 % of control. The T/C (dose: 36.0 mg/kg/injection, schedule: Q01DX001 (ip), vehicle: saline) was 154 % of control, the T/C (dose: 37.9 mg/kg/injection, schedule: Q01DX001 (iv), vehicle: saline) was 90 % of control and the T/C (dose: 54.0 mg/kg/injection, schedule: Q01DX001 (ip), vehicle: saline) was 164 % of control. For the same molecule, the T/C (dose: 54.0 mg/kg/injection, schedule: Q01DX001 (iv), vehicle: saline) was 158 % of control, the T/C (dose: 56.8 mg/kg/injection, schedule: Q01DX001 (iv), vehicle: saline) was 88 % of control and the T/C (dose: 81.0 mg/kg/injection, schedule: Q01DX001 (ip), vehicle: saline) was 106 % of control. For the same molecule, the T/C (dose: 81.0 mg/kg/injection, schedule: Q01DX001 (iv), vehicle: saline) was 103 % of control, the T/C (dose: 121.0 mg/kg/injection, schedule: Q01DX001 (iv), vehicle: saline) was 91 % of control and the T/C (dose: 88.0 micrograms/kg/injection, schedule: Q03HX024 (ip), vehicle: saline) was 112 % of control. For the same molecule, the T/C (dose: 200.0 micrograms/kg/injection, schedule: Q03HX024 (ip), vehicle: saline) was 166 % of control.
With `O=C(O)CCCc1ccc(N(CCCl)CCCl)cc1` the T/C (dose: 1.5 mg/kg/injection, schedule: Q01DX009 (ip), vehicle: saline with Tween-80) was 98 % of control, the T/C (dose: 3.0 mg/kg/injection, schedule: Q01DX009 (ip), vehicle: saline with Tween-80) was 107 % of control and the T/C (dose: 6.0 mg/kg/injection, schedule: Q01DX009 (ip), vehicle: saline with Tween-80) was 107 % of control. For the same molecule, the T/C (dose: 12.0 mg/kg/injection, schedule: Q01DX009 (ip), vehicle: saline with Tween-80) was 123 % of control.
`CC[C@H](c1ccc(O)cc1)[C@@H](CC)c1ccc(O)cc1` was tested, and the T/C (dose: 130.0 mg/kg/injection, schedule: Q01DX Z (sc), vehicle: methylcellulose (MC)) was 111 % of control.
